Laboratory results taken from patent US20230303647A1, “CYCLIC CHEMERIN-9 DERIVATIVES” (priority 2020, published 2023).
“Also recorded” adds a separate entry of the source. *1 amine or outer side, *2 acyl side, *3 side chain or, on linkers, in order; H or OH if unused. Where a SMILES comes first, the peptide text is derived from it. Bridges are numbered along the chain shown (N, C = ends). [ ]: non-standard residue; d: D form. The star is where a group is joined. ξ: configuration not given here. X1 = CN(C)c1ccc2c(-c3cc(C(=O)*)ccc3C(=O)[O-])c3ccc(=[N+](C)C)cc-3oc2c1; X2 = CN(C)c1ccc2c(-c3cc(C(=O)*)ccc3C(=O)O)c3ccc(=[N+](C)C)cc-3oc2c1; PEG4 = NCCOCCOCCOCCOCCC(=O)O; d(hCys) = N[C@H](CCS)C(=O)O; hCys = N[C@@H](CCS)C(=O)O; ξF = NC(Cc1ccccc1)C(=O)O; CH2 = C([*:1])[*:2]; ξC = NC(CS)C(=O)O

Key:
CMKLR1 [1] = target: T1, CMKLR1 (Homo sapiens, UniProt Q99788); assay: Ca2+ mobilization assay (G protein-mediated signaling); conditions: for G protein signaling activity (in words): Ca2+ mobilization assay
T1 sequence (Q99788 1-373): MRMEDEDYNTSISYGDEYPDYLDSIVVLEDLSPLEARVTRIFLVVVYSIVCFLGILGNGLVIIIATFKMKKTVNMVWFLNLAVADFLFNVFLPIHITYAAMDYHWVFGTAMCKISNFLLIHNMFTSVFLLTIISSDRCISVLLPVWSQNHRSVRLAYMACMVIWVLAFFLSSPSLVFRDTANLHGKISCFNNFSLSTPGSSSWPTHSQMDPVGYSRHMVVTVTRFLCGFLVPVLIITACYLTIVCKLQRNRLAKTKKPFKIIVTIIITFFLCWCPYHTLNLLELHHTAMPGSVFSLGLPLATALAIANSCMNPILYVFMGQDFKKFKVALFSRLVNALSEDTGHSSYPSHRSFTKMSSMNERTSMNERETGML
Protocol: COS-7 cells were transfected in 75 cm^2 cell culture flasks with 12 μg of the hCMKLR1_eYFP_GαΔ6qi4myr_pV2 plasmid overnight using Metafectene Pro. Transfected cells were seeded in 96 well plates (100 μL cell suspension in DMEM+10% FBS/well) and incubated overnight. The following day, the Ca^2+-mobilization was performed as described previously. […] All experiments were performed in triplicates, each experiment was repeated at least twice. Nonlinear regression was calculated using GraphPad Prism 5.

[2] = Plasma stability assay of Tam-labeled peptides; conditions: for half-life: human; for stability in blood plasma: over a time period of 24 h
Protocol: Investigation of peptide stability in blood plasma was carried out as described previously. […] Samples taken at the respective time points were added to a solution of 0.1% SDS in ACN/EtOH (1:1). After incubation at −20° C. for 20 min, the supernatant was transferred to a new tube and incubated again at −20° C. for at least 3 h. The solution was filtered by centrifugation using Costar Spin-X tubes (0.22 μm) and the filtrate was analyzed by RP-HPLC on a VariTide RPC. […] Peaks were integrated and the peak containing the intact peptide was normalized to the sample taken at t=0 min (100%).

CMKLR1 [3] = target: T1, CMKLR1; assay: BRET-based arrestin 3 recruitment assay; conditions: for arrestin 3 recruitment to the CMKLR1 (in words): BRET, compared with chemerin-9; for Emax: read-out: Emax [%] ± SEM
Protocol: HEK293 cells were transiently transfected using 75 cm^2 cell culture flasks with cell monolayers (confluency of ˜80%). Plasmid DNA of the C-terminally eYFP tagged human CMKLR1 and the chimeric G protein GαΔ6qi4myr in a pVitro2 vector (7.8 μg) and Renilla-luciferase 8-tagged Arrestin 3 in pcDNA3 (0.2 μg) and 24 μl MetafectenePro were separately added to 900 μl DMEM/Ham's F12 and incubated for 10 min before unification and incubation at RT for 20 min. […] The plasmid solution was added and cells were incubated overnight before seeding. Cell seeding was carried out in white 96-well polystyrene cell culture microplates, coated with poly-D lysine. […] Afterwards, the cells were incubated overnight at 37° C. The assay was performed under unsterile conditions. […] Afterwards, the cells were stimulated with the peptides in different concentrations (10^−5 to 10^−12 M) dissolved in BRET buffer. 50 μl of the peptide dilution were used for cell stimulation. Buffer without peptide was used as a negative control. […] The values of the negative control were subtracted, non-linear regression was calculated using GraphPad Prism. […] All measurements were performed in four technical replicates, all experiments were repeated at least twice.
The bioluminescence resonance energy transfer (BRET) assay was used to determine the potency of cyclic chemerin variants to recruit arrestin 3 to the CMKLR1 receptor after stimulation. HEK293 cells were transiently transfected with CMKLR1 receptor fused with eYFP fluorophore and Arrestin 3 tagged with Rluc8 luciferase. The transfected cells were seeded, incubated with the luciferase substrate coelenterazine-h and stimulated with different peptide concentrations, resulting in measurable BRET signals.

CMKLR1 [4] = target: T1, CMKLR1; assay: Fluorescence microscopy of CMKLR1 internalization and arrestin 3 recruitment; format: cell-based; design: expressed in transfected cells; host or cells: HEK293; conditions: HEK293 cells, 1 μM peptide, 30 min stimulation
Protocol: Ibidi 15μ-slides were coated with poly D-lysine before cell seeding. Cells were washed with DPBS prior to detachment with 1 ml trypsin/EDTA. […] The cell suspension was diluted to 140,000 cells/200 μl, which were seeded. Incubation was carried out overnight at 37° C. Afterwards, cells were transiently transfected. Plasmid DNA of hCMKLR1_eYFP_GαΔ6qi4myr_pV2 (0.9 μg) and mCherry_Arr3_pcDNA3 (0.1 μg) and 8 μl Lipofectamine were separately added to 100 μl DMEM/Ham's F12 and incubated for 10 min before unification and incubation at RT for 20 min. Incubation was carried out overnight at 37° C. […] The medium was replaced by 200 μl of OptiMEM and the to status was documented. The OptiMEM was then replaced by 200 μl of 1 μM peptide in OptiMEM. Fluorophore excitation was analyzed using different filters, depending on the emission wavelength of the fluorophore and the time of exposure was adjusted to each fluorophore individually. All images were processed identically with the AxioVision software (Carl Zeiss AG, Oberkochen, Germany).
To verify the arrestin-recruitment and analyze the internalization of the CMKLR1 receptor itself, HEK293 cells were used and transiently transfected with fluorescent labeled variants of the two molecules.
FIG. 2: Internalization of CMKLR1 and arrestin 3 recruitment. HEK293 cells expressing the hCMKLR1 (green) and arrestin 3 (Arr3; red) due to transient transfection were used for the internalization studies.

[5] = COS-7 cells transfected with hCMKLR1_eYFP_GαΔ6qi4myr, normalized to chemerin-9
[6] = pEC50 ± SEM, COS-7 cells transfected with hCMKLR1_eYFP_GαΔ6qi4myr, normalized to chemerin-9

Structure (SMILES): C[C@@H]1NC(=O)[C@H](Cc2ccccc2)NC(=O)[C@H](CCC(N)=O)NC(=O)[C@H](NC(=O)[C@@H]2CCCN2C(=O)[C@H](Cc2ccccc2)NC(=O)[C@@H](N)Cc2ccc(O)cc2)CSSC[C@@H](C(=O)O)NC(=O)[C@H](Cc2ccccc2)NC1=O [$$ 4, [c4,C9]-chemerin-9, reference compound] (H-YFP[dC]QFAFC-OH; disulfide 4-9)
- EC50 (CMKLR1 [1]; [5]): 64 nM
- pEC50 ± SEM (CMKLR1 [1]; [5]): 7.192 ± 0.147

Structure (SMILES): C[C@@H]1NC(=O)[C@H](Cc2ccccc2)NC(=O)[C@H](CCC(N)=O)NC(=O)[C@H](NC(=O)[C@@H]2CCCN2C(=O)[C@H](Cc2ccccc2)NC(=O)[C@H](Cc2ccc(O)cc2)NC(=O)c2ccc(C(=O)O)c(-c3c4ccc(=[N+](C)C)cc-4oc4cc(N(C)C)ccc34)c2)CSSC[C@@H](C(=O)O)NC(=O)[C@H](Cc2ccccc2)NC1=O [$$ 5, Tam-[c4,C9]-chemerin-9] (X2-YFP[dC]QFAFC-OH; disulfide 4-9)
- half-life ([2]; human blood plasma): > 24 h
- stability in blood plasma [2]: completely stable

Structure (SMILES): NC(=O)CC[C@@H]1NC(=O)[C@H](NC(=O)[C@@H]2CCCN2C(=O)[C@H](Cc2ccccc2)NC(=O)[C@@H](N)Cc2ccc(O)cc2)CSSC[C@@H](C(=O)N[C@@H](Cc2ccccc2)C(=O)N[C@@H](CO)C(=O)O)NC(=O)[C@H](Cc2ccccc2)NC1=O [$$ 6, [c4,C7]-chemerin-9, reference compound] (H-YFP[dC]QFCFS-OH; disulfide 4-7)
- EC50 (CMKLR1 [1]): 62.5 nM

Structure (SMILES): C[C@@H]1NC(=O)[C@H](Cc2ccccc2)NC(=O)[C@H](CCC(N)=O)NC(=O)[C@H](NC(=O)[C@@H]2CCCN2C(=O)[C@H](Cc2ccccc2)NC(=O)[C@@H](N)Cc2ccc(O)cc2)CSCSC[C@@H](C(=O)O)NC(=O)[C@H](Cc2ccccc2)NC1=O [$$ 7, [c4,C9-TA]-chemerin-9] (H-YFP[dC]QFAFC-OH; linker 4-9 via CH2)
- pEC50 ± SEM (CMKLR1 [1]; [5]): 7.888 ± 0.130

Structure (SMILES): C[C@@H]1NC(=O)[C@H](Cc2ccccc2)NC(=O)[C@H](CCC(N)=O)NC(=O)[C@H](NC(=O)[C@@H]2CCCN2C(=O)[C@H](Cc2ccccc2)NC(=O)[C@H](Cc2ccc(O)cc2)NC(=O)c2ccc(C(=O)[O-])c(-c3c4ccc(=[N+](C)C)cc-4oc4cc(N(C)C)ccc34)c2)CSCSC[C@@H](C(=O)O)NC(=O)[C@H](Cc2ccccc2)NC1=O [$$ 8, Tam-[c4,C9-TA]-chemerin-9] (X1-YFP[dC]QFAFC-OH; linker 4-9 via CH2)
- half-life ([2]; plasma): > 24 h
- stability in blood plasma [2]: completely stable

Structure (SMILES): C[C@@H]1NC(=O)[C@H](Cc2ccccc2)NC(=O)[C@H](CCC(N)=O)NC(=O)[C@H](NC(=O)[C@@H]2CCCN2C(=O)[C@H](Cc2ccccc2)NC(=O)[C@@H](N)Cc2ccc(O)cc2)CSCSCC[C@@H](C(=O)O)NC(=O)[C@H](Cc2ccccc2)NC1=O [$$ 9, [c4,X9-TA]-chemerin-9] (H-YFP[dC]QFAF[hCys]-OH; linker 4-9 via CH2)
- pEC50 ± SEM (CMKLR1 [1]; [5]): 7.429 ± 0.110
- stability in blood plasma [2]: completely stable

Structure (SMILES): C[C@@H]1NC(=O)[C@H](Cc2ccccc2)NC(=O)[C@H](CCC(N)=O)NC(=O)[C@H](NC(=O)[C@@H]2CCCN2C(=O)[C@H](Cc2ccccc2)NC(=O)[C@H](N)Cc2ccc(O)cc2)CSCSCC[C@@H](C(=O)O)NC(=O)[C@H](Cc2ccccc2)NC1=O [$$ 11, [y1,c4,X9-TA]-chemerin-9] (H-[dY]FP[dC]QFAF[hCys]-OH; linker 4-9 via CH2)
- pEC50 ± SEM (CMKLR1 [1]; [5]): 7.553 ± 0.067

Structure (SMILES): CN(C)c1ccc2c(-c3cc(C(=O)NCCCC[C@H]4NC(=O)C(Cc5ccccc5)NC(=O)[C@@H](CCC(N)=O)NC(=O)[C@H](NC(=O)[C@@H]5CCCN5C(=O)[C@@H](Cc5ccccc5)NC(=O)[C@H](N)Cc5ccc(O)cc5)CSSCC(C(=O)O)NC(=O)[C@@H](Cc5ccccc5)NC4=O)ccc3C(=O)[O-])c3ccc(=[N+](C)C)cc-3oc2c1 (some centres unmarked) [$$ 12, [y1,c4,K7(Tam),C9]-chemerin-9] (H-[dY][dF]P[dC][dQ][ξF][dK](X1)[dF][ξC]-OH; disulfide 4-9)
- half-life ([2]; human blood plasma): > 24 h
- stability in blood plasma [2]: equally stable

Structure (SMILES): C[C@@H]1NC(=O)[C@H](Cc2ccccc2)NC(=O)[C@H](CCC(N)=O)NC(=O)[C@H](NC(=O)[C@@H]2CCCN2C(=O)[C@H](Cc2ccccc2)NC(=O)[C@@H](N)Cc2ccc(O)cc2)CCSSC[C@@H](C(=O)O)NC(=O)[C@H](Cc2ccccc2)NC1=O [$$ 13, [x4,C9]-chemerin-9] (H-YFP[d(hCys)]QFAFC-OH; disulfide 4-9)
- arrestin 3 recruitment to the CMKLR1 (in words) (CMKLR1 [3]): only slightly shifted EC50 and Emax values; also recorded: slight loss of activity
- Emax (CMKLR1 [3]): 86.8 ± 4%

Structure (SMILES): C[C@@H]1NC(=O)[C@H](Cc2ccccc2)NC(=O)[C@H](CCC(N)=O)NC(=O)[C@H](NC(=O)[C@@H]2CCCN2C(=O)[C@H](Cc2ccccc2)NC(=O)[C@@H](N)Cc2ccc(O)cc2)CCSSC[C@@H](C(=O)O)NC(=O)[C@H](Cc2c[nH]c3ccccc23)NC1=O [$$ 14, [x4,W8,C9]-chemerin-9] (H-YFP[d(hCys)]QFAWC-OH; disulfide 4-9)
- G protein signaling activity (in words) (CMKLR1 [1]): increased the activity even more
- EC50 (CMKLR1 [1]; EC50, COS-7 cells transfected with hCMKLR1_eYFP_GαΔ6qi4myr, normalized to chemerin-9): 3 nM
- EC50 (CMKLR1 [1]; [6]): 3.17 nM
- EC50 (CMKLR1 [3]): 158 nM
- arrestin 3 recruitment to the CMKLR1 (in words) (CMKLR1 [3]): accepted; also recorded: no impact
- Emax (CMKLR1 [3]): 97 ± 10%

Structure (SMILES): C[C@@H]1NC(=O)[C@H](Cc2ccccc2)NC(=O)[C@H](CCC(N)=O)NC(=O)[C@H](NC(=O)[C@@H]2CCCN2C(=O)[C@H](Cc2ccccc2)NC(=O)[C@H](N)Cc2ccc(O)cc2)CCSSC[C@@H](C(=O)O)NC(=O)[C@H](Cc2c[nH]c3ccccc23)NC1=O [$$ 15, [y1,x4,W8,C9]-chemerin-9] (H-[dY]FP[d(hCys)]QFAWC-OH; disulfide 4-9)
- G protein signaling activity (in words) (CMKLR1 [1]): significantly decreased activity
- EC50 (CMKLR1 [1]; [6]): 207 nM
- arrestin 3 recruitment and internalization of the CMKLR1 (CMKLR1 [4]): neither internalization of the hCMKLR1 nor arrestin 3 recruitment could be detected
- arrestin 3 recruitment to the CMKLR1 (in words) (CMKLR1 [3]): no longer able to induce arrestin 3-recruitment; also recorded: completely abolishes arrestin recruitment

Structure (SMILES): C[C@@H]1NC(=O)[C@H](Cc2ccccc2)NC(=O)[C@H](CCC(N)=O)NC(=O)[C@H](NC(=O)[C@@H]2CCCN2C(=O)[C@H](Cc2ccccc2)NC(=O)[C@H](Cc2ccc(O)cc2)NC(=O)CCOCCOCCOCCOCCN)CCSSC[C@@H](C(=O)O)NC(=O)[C@H](Cc2ccccc2)NC1=O [$$ 16, EG4-[x4,C9]-chemerin-9] (H-[PEG4]YFP[d(hCys)]QFAFC-OH; disulfide 5-10)
- arrestin 3 recruitment to the CMKLR1 (in words) (CMKLR1 [3]): accepted; also recorded: no impact
- Emax (CMKLR1 [3]): 102 ± 5%

Structure (SMILES): C[C@@H]1NC(=O)[C@H](Cc2ccccc2)NC(=O)[C@H](CCC(N)=O)NC(=O)[C@H](NC(=O)[C@@H]2CCCN2C(=O)[C@H](Cc2ccccc2)NC(=O)[C@H](Cc2ccc(O)cc2)NC(=O)CCOCCOCCOCCOCCNC(=O)c2ccc(C(=O)[O-])c(-c3c4ccc(=[N+](C)C)cc-4oc4cc(N(C)C)ccc34)c2)CCSSC[C@@H](C(=O)O)NC(=O)[C@H](Cc2ccccc2)NC1=O [$$ 17, Tam-EG4-[x4,C9]-chemerin-9] ({X1-PEG4}-YFP[d(hCys)]QFAFC-OH; disulfide 4-9)
- half-life ([2]; human blood plasma): > 48 h

Structure (SMILES): C[C@@H]1NC(=O)[C@H](Cc2ccccc2)NC(=O)[C@H](CCC(N)=O)NC(=O)[C@H](NC(=O)[C@@H]2CCCN2C(=O)[C@H](Cc2ccccc2)NC(=O)[C@H](Cc2ccc(O)cc2)NC(=O)CCOCCOCCOCCOCCNC(=O)c2ccc(C(=O)[O-])c(-c3c4ccc(=[N+](C)C)cc-4oc4cc(N(C)C)ccc34)c2)CCSSC[C@@H](C(=O)O)NC(=O)[C@H](Cc2c[nH]c3ccccc23)NC1=O [$$ 19, Tam-EG4-[x4,W8,C9]-chemerin-9] ({X1-PEG4}-YFP[d(hCys)]QFAWC-OH; disulfide 4-9)
- half-life ([2]; human blood plasma): > 48 h

Structure (SMILES): CC(=O)NCC(=O)N[C@@H](Cc1ccccc1)C(=O)N[C@@H](CC(C)C)C(=O)NCC(=O)N[C@@H](Cc1ccc(O)cc1)C(=O)N[C@@H](Cc1ccccc1)C(=O)N1CCC[C@H]1C(=O)N[C@@H]1CCSSC[C@@H](C(=O)O)NC(=O)[C@H](Cc2ccccc2)NC(=O)[C@H](C)NC(=O)[C@H](Cc2ccccc2)NC(=O)[C@H](CCC(N)=O)NC1=O [$$ 20, GFLG-[x4,C9]-chemerin-9] (Ac-GFLGYFP[d(hCys)]QFAFC-OH; disulfide 8-13)
- EC50 (CMKLR1 [1]): 21.1 nM
- EC50 (CMKLR1 [3]; EC50, HEK293 cells, CMKLR1-eYFP and Rluc8-arrestin 3, 15 min after agonist addition): 100 nM
- Emax (CMKLR1 [3]): 89 ± 5%
